Assays:
Assay type in all cases: functional
[1] = Growth inhibition of human HCC2998 cells at 10 uM after 48 hrs by SRB assay relative to control; details: HCC 2998, 48 h, read-out: GI
[2] = Growth inhibition of human LOXIMVI cells at 10 uM after 48 hrs by SRB assay relative to control; details: LOX IMVI, read-out: GI
[3] = Growth inhibition of human UACC257 cells at 10 uM after 48 hrs by SRB assay relative to control; details: UACC-257, 48 h, read-out: GI
[4] = Growth inhibition of human OVCAR4 cells at 10 uM after 48 hrs by SRB assay relative to control; details: OVCAR-4, 48 h, read-out: GI
[5] = Growth inhibition of human OVCAR5 cells at 10 uM after 48 hrs by SRB assay relative to control; details: OVCAR-5, 48 h, read-out: GI
[6] = Growth inhibition of human NCI-ADR-RES cells at 10 uM after 48 hrs by SRB assay relative to control; details: read-out: GI
[7] = Growth inhibition of human IGROV1 cells at 10 uM after 48 hrs by SRB assay relative to control; details: IGROV-1, 48 h, read-out: GI
[8] = system: ACHN; experiment: Growth inhibition of human ACHN cells at 10 uM after 48 hrs by SRB assay relative to control; details: read-out: GI
[9] = Growth inhibition of human DU145 cells at 10 uM after 48 hrs by SRB assay relative to control; details: DU-145, 48 h, read-out: GI
[10] = Growth inhibition of human PC3 cells at 10 uM after 48 hrs by SRB assay relative to control; details: PC-3, 48 h, read-out: GI
[11] = Growth inhibition of human SF295 cells at 10 uM after 48 hrs by SRB assay relative to control; details: SF-295, 48 h, read-out: GI
[12] = Growth inhibition of human SF539 cells at 10 uM after 48 hrs by SRB assay relative to control; details: SF-539, 48 h, read-out: GI
[13] = Growth inhibition of human SNB19 cells at 10 uM after 48 hrs by SRB assay relative to control; details: SNB-19, 48 h, read-out: GI
[14] = Growth inhibition of human SNB75 cells at 10 uM after 48 hrs by SRB assay relative to control; details: SNB-75, 48 h, read-out: GI
[15] = system: MCF7; experiment: Growth inhibition of human MCF7 cells at 10 uM after 48 hrs by SRB assay relative to control; details: MCF7, 48 h, read-out: GI
[16] = system: MDA-MB-231; experiment: Growth inhibition of human MDA-MB-231 cells at 10 uM after 48 hrs by SRB assay relative to control; details: MDA-MB-231, 48 h, read-out: GI
[17] = system: T47D; experiment: Growth inhibition of human T47D cells at 10 uM after 48 hrs by SRB assay relative to control; details: read-out: GI
[18] = system: A549; experiment: Growth inhibition of human A549 cells at 10 uM after 48 hrs by SRB assay relative to control; details: A549, 48 h, read-out: GI
[19] = system: NCI-H322M; experiment: Growth inhibition of human NCI-H322M cells at 10 uM after 48 hrs by SRB assay relative to control; details: read-out: GI
[20] = system: NCI-H460; experiment: Growth inhibition of human NCI-H460 cells at 10 uM after 48 hrs by SRB assay relative to control; details: NCI-H460, 48 h, read-out: GI
[21] = system: NCI-H522; experiment: Growth inhibition of human NCI-H522 cells at 10 uM after 48 hrs by SRB assay relative to control; details: NCI-H522, 48 h, read-out: GI
[22] = Growth inhibition of human COLO205 cells at 10 uM after 48 hrs by SRB assay relative to control; details: COLO 205, 48 h, read-out: GI

SMILES	inhibition of growth at 10 µM [1]	inhibition of growth at 10 µM [2]	inhibition of growth at 10 µM [3]	inhibition of growth at 10 µM [4]	inhibition of growth at 10 µM [5]	inhibition of growth at 10 µM [6]	inhibition of growth at 10 µM [7]	inhibition of growth at 10 µM [8]	inhibition of growth at 10 µM [9]	inhibition of growth at 10 µM [10]	inhibition of growth at 10 µM [11]	inhibition of growth at 10 µM [12]	inhibition of growth at 10 µM [13]	inhibition of growth at 10 µM [14]	inhibition of growth at 10 µM [15]	inhibition of growth at 10 µM [18]	inhibition of growth at 10 µM [19]	inhibition of growth at 10 µM [20]	inhibition of growth at 10 µM [21]	inhibition of growth at 10 µM [22]	also measured
O=C(c1ccc(Cl)cc1Cl)N1c2ccccc2Sc2ccccc21	35%	76%	36%	18%	29%	39%	39%	39%	35%	56%	47%	58%	43%	40%	48%	46%	15%	82%	36%	55%	inhibition of growth at 10 µM [16]: 31%; inhibition of growth at 10 µM [17]: 33%
O=C(c1ccc(F)cc1F)N1c2ccccc2Sc2ccccc21	47%	74%	44%	17%	21%	55%	33%	20%	20%	58%	36%	49%	37%	31%	48%	48%	8%	80%	41%	56%	inhibition of growth at 10 µM [16]: 38%; inhibition of growth at 10 µM [17]: 35%
COc1ccc(C(=O)c2ccc3c(c2)Sc2cc(C(=O)c4ccc(OC)c(F)c4)ccc2N3C)cc1F	0%	0%	11%	0%	0%	0%	0%	0%	0%	3%	0%	6%	6%	2%	7%	15%	0%	0%	20%	0%	–
